According to patent publication US20100239685A1, “COMPOUND FOR TREATMENT OR PREVENTION OF PROSTATE-RELATED DISEASES AND PHARMACEUTICAL COMPOSITION OF COLON DELIVERY SYSTEM CONTAINING THE SAME” (priority 2006, published 2010):
“And” between values parts separate entries of the source, which are not always exact repeats. Identical values can stand only once.

Columns and labels:
[1] = Intestinal absorption, single-pass intestinal perfusion; format: in vivo, rats
Description: In order to determine intestinal absorption (%) of a naphthoquinone-based compound, a single-pass intestinal perfusion technique was carried out in internal organs of rats, including jejunum, ileum and large intestine. The steady-state intestinal effective permeability (Peff) can be expressed according to the following equation. Peff=[−Qin·ln (Cout/Cin)]/A Peff: Steady-state intestinal effective permeability (cm/s) Qin: Perfusion flow rate (0.4 mL/min) Cin, Cout: Inlet and fluid-transport-corrected outlet solution concentrations A: Mass transfer surface area within intestinal segment (2πrL), r, L: Radius and length of intestinal segment The radius (r) and length (L) of the jejunum, ileum and large intestine used in experiments are as follows: (r: jejunum, 0.21 cm; ileum, 0.22 cm; large intestine, 0.23 cm, and L: 10 cm) The steady-state was confirmed by the ratio of the outlet to inlet concentrations (Cout/Cin) versus time. The steady-state is established when the Cout/Cin ratio of the naphthoquinone-based compound is maintained at a constant value (n=3, error bars with respect to S.D.). Residual amounts of the naphthoquinone-based compound in the above three intestinal organs were measured at different time points. The outlet steady-state concentration of the compound under perfusion was calculated. The results thus obtained are given in Table 4 and FIG. 2, respectively. The effective permeability was measured at 4 points of each intestinal tissue.

[2] = cited from earlier work
[3] = Determination of partition coefficients (octanol / phosphate buffer pH 7.4); format: physicochemical; details: sample 200 μg/mL; octanol/water; replicates 1-3
Description: Octanol and phosphate buffer (pH 7.4) were saturated with a counter-solvent for 24 hours or more. A given amount of a naphthoquinone-based compound (compound 1 of Table 1 below) was dissolved in the thus-saturated octanol, mixed with triple-distilled water and stirred using a magnetic stirrer at 200 rpm for 13 hours or more. Samples were taken, filtered through a 0.45 μm RC Membrane filter and diluted with methanol. The diluted sample materials were analyzed by HPLC. A partition coefficient versus an amount of the compound 1 was determined.

CC1(C)CCC2=C(O1)c1ccccc1C(=O)C2=O [naphthoquinone-based compound]
Peff ([1]; Duodenum): 0.79 ± 0.33 × 10^−5 (cm/s) | Peff ([1]; Ileum): 5.15 ± 1.49 × 10^−5 (cm/s) | Peff ([1]; Jejunum): 2.37 ± 1.17 × 10^−5 (cm/s) | Peff ([1]; Large intestine): 7.82 ± 0.93 × 10^−5 (cm/s)

C[C@H]1COC2=C1C(=O)C(=O)c1c2ccc2c1CCCC2(C)C [cryptotanshinone]
absorption rate via oral administration [2]: 2.05%

CC1(C)CCC2=C(O1)c1ccccc1C(=O)C2=O [Compound 1]
Partition Coefficient [3]: 2.40 and 2.20
